Laboratory results taken from patent US10766888B1, “HMOX1 inducers” (Mitobridge Inc., priority 2019, dated 2020).
In brackets after ≈: the same amount, converted by molar mass. Read-outs that look alike come from different tables or passages of the source.

Legend:
hERG channel = hERG channel (Homo sapiens, UniProt Q12809); experiment: hERG manual patch clamp assay; assay type: cell-based; conditions: HEK 293 cells stably expressing hERG channel, pH 7.35, 10 μM compound
Procedure: Cell Lines and Cell Culture
HEK 293 cell line stably expressing hERG channel (Cat # K1236) was purchased from Invitrogen. The cells were cultured in 85% DMEM, 10% dialyzed FBS, 0.1 mM NEAA, 25 mM HEPES, 100 U/mL Penicillin-Streptomycin and 5 μg/mL Blasticidin and 400 μg/mL Geneticin. Cells were split using TrypLE™ Express about three times a week, and maintained between ˜40% to ˜80% confluence. Before the assay, the cells were transferred onto the coverslips at 5×10^5 cells/per 6 cm cell culture dish and induced with doxycycline at 1 μg/mL for 48 hours.
• 1) External solution (in mM): 132 NaCl, 4 KCl, 3 CaCl2, 0.5 MgCl2, 11.1 glucose, and 10 HEPES (pH adjusted to 7.35 with NaOH) • 2) Internal solution (in mM): 140 KCl, 2 MgCl2, 10 EGTA, 10 HEPES and 5 MgATP (pH adjusted to 7.35 with KOH) • 3) hERG currents were tested in presence of 10 μM compound concentration with final concentration of DMSO of 0.1%. Experimental Procedure • 1) Removed the coverslip from the cell culture dish and placed it on the microscope stage in bath chamber. • 2) Located a desirable cell using the 10× objective. Located the tip of the electrode under the microscope using the 10× objective by focusing above the plane of the cells. Once the tip was in focus, advanced the electrode downwards towards the cell using the coarse controls of the manipulator, while simultaneously moving the objective to keep the tip in focus. • 3) When directly over the cell, switched to the 40× objective and used the fine controls of the manipulator to approach the surface of the cell in small steps. • 4) Applied gentle suction through the side-port of the electrode holder to form a gigaohm seal. • 5) Used the Cfast to remove the capacity current that was in coincidence with the voltage step. Obtained the whole cell configuration by applying repetitive, brief, strong suction until the membrane patch ruptured. • 6) Set membrane potential to −60 mV at this point to ensure that hERG channels were not • open. The spikes of capacity current should then be cancelled using the Cslow on the amplifier. 7) Set holding potential to −90 mV for 500 ms; recorded current at 50 kHz and filtered at 10 kHz. Leaking current was tested at −80 mV for 500 ms. • 8) The hERG current was elicited by depolarizing at +30 mV for 4.8 seconds and then the voltage was taken back to −50 mV for 5.2 seconds to remove the inactivation and observe the deactivating tail current. The maximum amount of tail current size was used to determine hERG current amplitude. • 9) Recorded current for 120 seconds to assess the current stability. Only stable cells with recording parameters above threshold were applied for the compound administrations. • 10) Firstly vehicle control was applied to the cells to establish the baseline. […] In order to ensure the good performance of cultured cells and operations, the positive control, Dofetilide, with 5 dose concentration was also used to test the same batch of cells. Data Analysis
The following criteria were used to determine data acceptability. • 1) Initial seal resistance >1 GΩ; • 2) Leak currents <50% of the control peak tail currents at any time; • 3) The peak tail amplitude >250 pA; • 4) Membrane resistance Rm>500 MΩ; • 5) Access resistance (Ra)<10 MΩ; • 6) Apparent run-down of peak current <2.5% per min.
Data that met the above criteria for hERG current quality were further analyzed as the following steps. • 1) Percent hERG current inhibition was calculated using the following equation. • Note: PatchMaster or Clampfit software was used to extract the peak current from the original data.
[formula] • 2) The dose response curve of test compounds was plotted with percentage of hERG current inhibition against the concentration of test compounds using Graphpad Prism 6.0, and fit to a sigmoid dose-response curve with a variable slope.

[1] = system: Human Heme Oxygenase-1 (HMOX-1); experiment: ELISA assay to measure human heme oxygenase-1 (HMOX-1) in HepG2 lysate; assay type: cell-based
Outline: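 Treated HepG2 cells were lysed in PBS with 0.5% Triton X100, 1 mM EDTA and protease inhibitors, and lysates were diluted 1:20. HO-1 was measured by sandwich ELISA (biotinylated detection antibody, streptavidin-HRP, chemiluminescence) at room temperature against a standard curve from 20 ng/ml. EC50 and fold change were expressed relative to DMSO control.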

[2] = PD study: compound concentration in mouse liver; assay type: in vivo, C57BL/6 mice; conditions: male, C57BL/6, mouse, 50 mg/kg, 50 mpk oral; for concentration at 3 h: read-out: Liver Conc uM (3 h); for concentration at 6 h: read-out: Liver Conc uM (6 h)
Procedure: 9-10 week old male C57BL/6 mice were dosed orally with 50 mg/kg of vehicle or compound formulated in 5% w/v tween 80 and 0.5% methyl cellulose. At indicated time points (3 and 6 hours or or 4 and 8 hours post-dosing as shown in the results below), whole blood was collected, animal was sacrificed and liver was collected. Blood samples were transferred to vials containing 4 μL of 10% w/v EDTA, centrifuged at 6000 rpm for 8 in below 10° C. to obtain plasma. Samples were frozen and later processed for HMOX1 protein levels as indicated below: […]

Kinetic solubility = assay type: physicochemical; conditions: Dulbecco's phosphate buffer saline (DPBS), aqueous buffer, kinetic from dmso stock, DPBS pH 7.4, 25° C., 200 μM test compound
Outline: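 Compound from 10 mM DMSO stock diluted to 200 μM final in DPBS pH 7.4 and, separately, in DMSO, in duplicate. Shaken 16 h at 25 °C, then centrifuged 20 min at 25 °C. Supernatant analysed by HPLC.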

Human BACH1 = biological target: T1, Human BACH1 (Homo sapiens, UniProt O14867); experiment: Microscale thermophoresis (MST) assay / Bach 1 binding assay; conditions: 10 nM fluorescently labeled BACH1(aa179-736), 25° C.
T1 construct: 10×HIS-GP-BACH1(aa179-736)-Thrombin-FLAG; 10xHis (N); GP linker (Gly-Pro) (N); Thrombin cleavage site (C); FLAG (C); host or cells: Sf9 insect cells
T1 sequence (O14867 179-736): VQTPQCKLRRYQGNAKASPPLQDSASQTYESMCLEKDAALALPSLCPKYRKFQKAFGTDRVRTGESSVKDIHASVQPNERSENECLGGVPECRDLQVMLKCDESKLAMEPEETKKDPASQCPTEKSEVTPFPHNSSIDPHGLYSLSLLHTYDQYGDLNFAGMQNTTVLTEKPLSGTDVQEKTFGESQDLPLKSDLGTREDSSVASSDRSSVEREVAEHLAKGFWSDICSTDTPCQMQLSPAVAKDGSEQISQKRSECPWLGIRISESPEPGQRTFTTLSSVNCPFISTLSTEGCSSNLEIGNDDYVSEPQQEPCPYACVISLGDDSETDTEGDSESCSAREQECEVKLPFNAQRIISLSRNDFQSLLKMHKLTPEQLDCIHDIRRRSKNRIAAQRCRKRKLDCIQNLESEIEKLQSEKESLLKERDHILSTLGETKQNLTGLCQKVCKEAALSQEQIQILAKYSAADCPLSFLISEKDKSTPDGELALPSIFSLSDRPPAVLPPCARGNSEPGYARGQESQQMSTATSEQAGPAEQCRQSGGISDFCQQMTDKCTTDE
Procedure: Example 146. Microscale Thermophoresis (MST) Assay/Bach 1 Binding Assay
Outline of Protein Expression/Production
Human BACH1 (construct-ID: 10×HIS-GP-BACH1(aa179-736)-Thrombin-FLAG) was expressed in Sf9 insect cells. Protein purification was performed using affinity chromatography, followed by size-exclusion chromatography. Quality of resulting protein was judged using SDS-PAGE analysis.
The MST technology is based on measurement of protein movement along a temperature gradient. Thereby, fluorescently labeled protein is loaded into capillaries, where an infrared laser heats a small volume. Before and during heating, fluorescent intensity is measured at the site of irradiation and the loss of fluorescence in the IR laser focus is quantified.
Two major factors contribute to change of fluorescence signal. First of all, the so-called TRIC (Temperature Related Intensity Change) effect is caused by the temperature-dependency of fluorophore's quantum yield. Herein, the extent of the temperature dependence depends on the chemical environment, which may be changed by the binding of a ligand (e.g. compound, peptide) to the target. Moreover, Kd value between ligand and target can depend on temperature. Second, thermophoresis, which is defined as movement of fluorescent molecules along temperature gradient, is a major contributor to change of fluorescence. Hereby, protein movement along the gradient depends on hydrodynamic radius, charge and hydration shell. These properties can change upon association of the labeled protein with another species, e.g. compound. Thereby, MST detects the differences in protein movement with increasing ligand concentration: from this, the fraction of ligand bound protein and a Kd value can be determined.
For Kd determination of compounds binding BACH1, the following protocol was applied: 10×HIS-GP-BACH1(aa179-736)-Thrombin-FLAG (expressed and purified at Proteros) was fluorescently labeled via its lysine-residues (2nd gen NHS-NT.647 dye).
Experiments were performed using the experimental device Monolith NT.115 Pico, NanoTemper Technologies, with MST power set to medium and excitation power set to 2% at a reaction temperature of 25° C.
10 nM fluorescently labeled BACH1 was applied to reaction buffer containing 50 mM HEPES pH 8.0, 100 mM NaCl, 5% glycerol, 0.05% Tween20 and 1 mM DTT in a reaction volume of 8 μL using Monolith NT.115 Premium Capillaries. Compounds were applied at a maximal concentration of 103 μM with 15 subsequent factor 2 dilutions.

[3] = HepG2, human HMOX1, as listed in Table 5, read-out: HMOX1 EC50 h
[4] = human HMOX1 protein level in HepG2 lysate, * = average of 2 or more EC50 determinations, NA = Not Active, read-out: EC50

Chain of hERG channel (Q12809 whole entry): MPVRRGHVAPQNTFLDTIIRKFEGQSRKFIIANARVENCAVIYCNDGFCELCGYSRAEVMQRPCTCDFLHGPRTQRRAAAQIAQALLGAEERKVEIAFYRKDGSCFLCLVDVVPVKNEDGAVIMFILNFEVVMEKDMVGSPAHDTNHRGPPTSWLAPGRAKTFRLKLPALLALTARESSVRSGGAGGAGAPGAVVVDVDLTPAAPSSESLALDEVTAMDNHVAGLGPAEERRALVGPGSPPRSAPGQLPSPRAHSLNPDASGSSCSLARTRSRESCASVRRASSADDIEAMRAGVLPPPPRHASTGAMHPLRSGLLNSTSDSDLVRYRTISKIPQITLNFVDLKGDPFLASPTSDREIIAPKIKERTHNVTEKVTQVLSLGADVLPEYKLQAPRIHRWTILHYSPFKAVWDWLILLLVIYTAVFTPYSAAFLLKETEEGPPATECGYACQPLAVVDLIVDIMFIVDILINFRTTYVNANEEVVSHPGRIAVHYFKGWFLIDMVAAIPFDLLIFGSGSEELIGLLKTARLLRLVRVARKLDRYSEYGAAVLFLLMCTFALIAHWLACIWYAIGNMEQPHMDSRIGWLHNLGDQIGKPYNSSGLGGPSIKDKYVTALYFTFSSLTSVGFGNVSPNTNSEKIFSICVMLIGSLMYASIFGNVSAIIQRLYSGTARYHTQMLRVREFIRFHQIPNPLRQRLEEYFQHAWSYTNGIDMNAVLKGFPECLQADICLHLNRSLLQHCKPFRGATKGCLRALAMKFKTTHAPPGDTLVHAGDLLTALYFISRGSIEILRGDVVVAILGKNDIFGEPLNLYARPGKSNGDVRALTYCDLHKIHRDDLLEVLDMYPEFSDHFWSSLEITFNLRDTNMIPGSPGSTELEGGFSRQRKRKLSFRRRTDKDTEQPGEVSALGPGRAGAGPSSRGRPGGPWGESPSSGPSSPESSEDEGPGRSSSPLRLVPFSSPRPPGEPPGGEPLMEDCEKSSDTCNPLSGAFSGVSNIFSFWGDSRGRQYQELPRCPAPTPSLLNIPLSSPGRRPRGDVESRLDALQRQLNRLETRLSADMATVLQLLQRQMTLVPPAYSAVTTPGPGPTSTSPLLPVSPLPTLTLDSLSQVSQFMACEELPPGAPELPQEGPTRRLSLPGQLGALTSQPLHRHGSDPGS

| SMILES | inhibition at 10 µM (hERG channel) [%] | EC50 [1, 3] [µM] | EC50 [1, 4] [µM] | concentration at 3 h [2] [µM] | concentration at 6 h [2] [µM] | solubility at 16 h (Kinetic solubility) [µM] | Kd (Human BACH1) [µM] |
| --- | --- | --- | --- | --- | --- | --- | --- |
| Cn1c(Nc2nc3cc(OC(F)(F)F)ccc3[nH]2)nc2cc(C(=O)O)ccc21 [Example 13, 1-methyl-2-((5-(trifluoromethoxy)-1H-benzo[d]imidazol-2-yl)amino)-1H-benzo[d]imidazole-5-carboxylic acid] | 34 | 1.9 | 1.9 | 63 | 5.4 |  |  |
| Cn1c(Nc2nc3ccc(C(F)(F)F)cc3o2)nc2cc(C(=O)NCCO)ccc21 [Example 33, N-(2-hydroxyethyl)-1-methyl-2-((6-(trifluoromethyl)benzo[d]oxazol-2-yl)amino)-1H-benzo[d]imidazole-5-carboxamide] |  |  | 0.3 |  |  | 0.9 (≈ 0.377 µg/mL) | 0.26 |
| Cn1c(Nc2nc3ccc(OC(F)(F)F)cc3o2)nc2cc(C(=O)O)ccc21 [Example 44, 1-methyl-2-((6-(trifluoromethoxy)benzo[d]oxazol-2-yl)amino)-1H-benzo[d]imidazole-5-carboxylic acid] | 15 | 2 | 1.3 | 217 | 162 |  |  |
| COCCNC(=O)c1ccc2c(c1)nc(Nc1nc3ncccc3o1)n2C [Example 112, N-(2-methoxyethyl)-1-methyl-2-(oxazolo[4,5-b]pyridin-2-ylamino)-1H-benzo[d]imidazole-5-carboxamide] |  |  |  |  |  |  | 0.56 |
| CN(C)CC(=O)NCCONC(=O)c1ccc2c(c1)nc(Nc1nc3ccccc3o1)n2C [Example 121, 2-(benzo[d]oxazol-2-ylamino)-N-(2-(2-(dimethylamino)acetamido)ethoxy)-1-methyl-1H-benzo[d]imidazole-5-carboxamide] | 66 |  | 1.4 |  |  | 9 (≈ 4.06 µg/mL) |  |
| CN(C)CCONC(=O)c1ccc2c(c1)nc(Nc1nc3ccc(C(F)(F)F)cc3o1)n2C [Example 122, N-(2-(dimethylamino)ethoxy)-1-methyl-2-((6-(trifluoromethyl)benzo[d]oxazol-2-yl)amino)-1H-benzo[d]imidazole-5-carboxamide] | 87 |  | 0.4 |  |  | 5.1 (≈ 2.36 µg/mL) |  |
| COCCONC(=O)c1ccc2c(c1)nc(Nc1nc3ccc(C(F)(F)F)cc3o1)n2C [Example 124, N-(2-methoxyethoxy)-1-methyl-2-((6-(trifluoromethyl)benzo[d]oxazol-2-yl)amino)-1H-benzo[d]imidazole-5-carboxamide] |  |  | 0.2 |  |  | < 2 | 0.2 |
| COCCOc1ccc2nc(Nc3nc4cc(C(=O)NOCCO)ccc4n3C)oc2c1 [Example 128, N-(2-hydroxyethoxy)-2-((6-(2-methoxyethoxy)benzo[d]oxazol-2-yl)amino)-1-methyl-1H-benzo[d]imidazole-5-carboxamide] | 18 |  | 1.2 |  |  | 4.7 (≈ 2.07 µg/mL) |  |
| Cn1c(Nc2nc3ccc(N4CCCC4)cc3o2)nc2cc(C(=O)NCCOCCO)ccc21 [Example 137, N-(2-(2-hydroxyethoxy)ethyl)-1-methyl-2-((6-(pyrrolidin-1-yl)benzo[d]oxazol-2-yl)amino)-1H-benzo[d]imidazole-5-carboxamide] | 18 |  | 1.3 |  |  | 6.9 (≈ 3.21 µg/mL) |  |
